Experimental data taken from PMC11044151, “Development of Half-Sandwich Ru, Os, Rh, and Ir Complexes Bearing the Pyridine-2-ylmethanimine Bidentate Ligand Derived from 7-Chloroquinazolin-4(3H)-one with Enhanced Antiproliferative Activity” (ACS Omega, 2024).

Assays:
SW620M = assay: Neutral red uptake antiproliferative assay, MDR line SW620M; type: cell-based, human
Excerpt: (§1) Next, we evaluated the cytotoxicity of the synthesized complexes toward the panel of six multidrug-resistant (MDR) cell lines derived from SW620 and characterized by the overexpression of various ABC proteins, namely, ABCG2 (SW620C and SW620Mito), ABCC1 (SW620M and SW620E), and ABCB1 (SW620D, SW620E, and SW620V) (Table 3, Figures S29 and S32). […] The activity of the complexes derived from the ligand (S)-2 is also considerably higher than that of the compounds containing the ligand (R)-2. The cytotoxicity of both rhodium 4c and iridium 4d complexes is higher than that of amine (S)-1. In the case of 4c, the increase in cytotoxicity is low, with the highest value of 3.7-fold for the SW620Mito line. […] Compound 4d also exerts a 2.1- and 2.6-fold higher cytotoxicity than […] against the SW620C and SW620D lines.
(§2) For this purpose, neutral red uptake assay was performed. […] The results were presented as a percentage of control.

SW620 cells [1] = assay: Cell cycle distribution by flow cytometry, SW620; type: cell-based, human; details: concentration equal to IC75 of (S)-1 / (R)-1, mean ± SEM, n = 3
Description: Ispinesib leads to the formation of monopolar mitotic spindles and a blockade of chromosome segregation in cancer cells. Using flow cytometry, we assessed the cell cycle distribution in the SW620 and SW620E cells exposed to the studied compounds for 24 and 48 h. […] Both complexes, 3c and 3d, decrease the percentage of cells in the G1/G0 phase and increase the percentage in the S and G2/M phases. […] Furthermore, prolonged exposure to the compounds increases the percentage of cells in the G2/M phase, with the most intensive effect observed for 3c and 3d.
SW620 and SW620E cells lines (vulnerable and resistant variants, respectively) were seeded in 6-well plates at a density of 10^5 cells per well. […] After 24 h, the cells were trypsinized and fixed with ice-cold 70% v/v ethanol. The cells were stained with 75 μM propidium iodide with 50 Kunitz units of RNase A in PBS for 30 min at 37 °C. All samples were analyzed using a LSRII flow cytometer (Becton Dickinson) at a PE channel ([…]). Cell cycle phase distribution was determined using a built-in cell cycle module (Watson pragmatic algorithm) by FlowJo 7.6.1 software.

SW620Mito = assay: Neutral red uptake antiproliferative assay, MDR line SW620Mito; type: cell-based, human
Excerpt: as §1, §2

SW620 = assay: Neutral red uptake antiproliferative assay, SW620; type: cell-based, human
Excerpt: (§3) To assess the impact of conjugating half-sandwich complexes with amines 1 via an imine-pyridine ligand on biological activity, we examined the antiproliferative potential of (R)- and (S)-1 and organometallic conjugates 3a–d and 4a–d in selected human cancer cell lines: alveolar basal epithelial cell adenocarcinoma (A549), colorectal adenocarcinomas (Colo205 and SW620), colorectal carcinoma (HCT116), hepatocellular carcinoma (HepG2), and breast adenocarcinoma (MCF7). The choice of cell lines was dictated by results of previously published clinical trials on ispinesib.[49],[50]
(§4) Cell lines used in this study were purchased from the American Type Culture Collection via LGC Standards. Human normal lung fibroblasts (MRC-5), alveolar basal epithelial cell adenocarcinoma (A549), colorectal adenocarcinoma (Colo205), hepatocellular carcinoma (HepG2), breast adenocarcinoma (MCF7), and colorectal adenocarcinoma (SW620) and its MDR variants[55] were cultured in standard conditions (37 °C, 5% CO2, 100% relative humidity) in high glucose DMEM medium supplemented with GlutaMax, HEPES (ThermoFisher Scientific) and 10% fetal bovine serum (EURx, Poland). All cell lines were tested for Mycoplasma contamination using a MycoProbe mycoplasma detection kit (R&D System).
(§5) For this purpose, neutral red uptake assay was performed. 10^4 of cells were seeded per well of a 96-well plate and left overnight to allow cells to attach to the surface. Then, the cells were exposed to a desired concentration of tested compounds. Stock solutions were prepared in DMSO and were used immediately after preparation. The final concentration of DMSO was constant and nontoxic (0.1% v/v). After 70 h of culture, neutral red was added to the final concentration of 1 mM. After 2 h of incubation with the dye, the medium was aspirated and cells were washed with ice-cold PBS. The dye was released using 100 μL of the solubilizer (1% acetic acid in 50% ethanol) on an orbital shaker (10 min). The absorbance at 540 nm was measured using an EnVision multilabel plate reader (PerkinElmer). […] The IC90 and IC50 parameters were calculated using GraphPad Prism v9 software using the five-parameter nonlinear logistic regression model.

SW620D = assay: Neutral red uptake antiproliferative assay, MDR line SW620D; type: cell-based, human
Excerpt: as §1, §2

MCF7 = assay: cells
Excerpt: as §3, §4, §5

Colo205 = assay: cells
Excerpt: as §3, §4, §5

HepG2 = assay: cells
Excerpt: as §3, §4, §5

SW620E = assay: Neutral red uptake antiproliferative assay, MDR line SW620E; type: cell-based, human
Excerpt: as §1, §2

SW620V = assay: Neutral red uptake antiproliferative assay, MDR line SW620V; type: cell-based, human
Excerpt: as §1, §2

HCT116 = assay: cells
Excerpt: as §3, §5

SW620 cells [2] = assay: ROS generation, dihydrorhodamine 123 oxidation assay; type: cell-based, human; details: SW620, 1 μM compound, 4 h, DHR123 with 10 μM verapamil; vs control or (R)- and (S)-1
Excerpt: Metal complexes often induce reactive oxygen species (ROS) generation in cells,[51] which may increase their cytotoxic activity compared to purely organic molecules. To study the impact of the synthesized compounds on ROS production, we have measured the ROS generation in SW620 cells by the dihydrorhodamine 123 (DHR123) oxidation assay (Figure 9). However, there is no correlation between the antiproliferative potential and the ability of a compound to generate ROS.
Dihydrorhodamine 123 oxidation was used as an indicator of intracellular ROS production. For this purpose, SW620 cells were seeded in 6-well plates at a density of 10^5 cells per well. The cells were left overnight (time needed for them to attach to the surface). Then, 1 μM tested compounds were added along with 1 μM DHR123. Additionally, since DHR123 is a substrate of ABCB1 (which may interfere in this assay), 10 μM verapamil, an inhibitor of this protein, was added. The cells were cultured for an additional 4 h at 37 °C, and then the cells were harvested by trypsinization, resuspended in a complete medium, and analyzed using a LSRII flow cytometer (Becton Dickinson) in a FITC channel (530/30 nm). The results are presented as a percentage of control (median fluorescence in the presence of DMSO).

SW620C = assay: Neutral red uptake antiproliferative assay, MDR line SW620C; type: cell-based, human
Excerpt: as §1, §2

A549 = assay: Neutral red uptake antiproliferative assay, A549
Excerpt: as §3, §4, §5

[3] = vs corresponding amine (R)-1 or (S)-1, 72 h
[4] = exposure time 72 h, n = 3, ABCG2-overexpressing MDR line
[5] = exposure time 72 h, n = 3, ABCB1-overexpressing MDR line

## CC(C)[C@H](N=Cc1ccccn1)c1nc2cc(Cl)ccc2c(=O)n1Cc1ccccc1.Cc1ccc(C(C)C)cc1.F[P-](F)(F)(F)(F)F.[Cl-].[Ru+2] [Compound 4a, [(cym)Ru((S)-2)Cl]PF6]
SW620M; exposure time 72 h, n = 3, ABCC1-overexpressing MDR line
  IC50: 3.24 µM
SW620M; [3]
  activity factor IC50(1)/IC50(3a–4d), SW620M: (1.07)
SW620 cells [1]; SW620, 24 h
  Cell cycle fraction G1, 24 h: 52.8 ± 1.2%
  Cell cycle fraction G2/M, 24 h: 33.3 ± 1.0%
  Cell cycle fraction S, 24 h: 13.5 ± 0.4%
SW620 cells [1]; SW620, 48 h
  Cell cycle fraction G1, 48 h: 46.8 ± 0.7%
  Cell cycle fraction G2/M, 48 h: 39.1 ± 0.3%
  Cell cycle fraction S, 48 h: 13.5 ± 0.8%
SW620Mito; [4]
  IC50: 3.68 µM
SW620Mito; [3]
  activity factor IC50(1)/IC50(3a–4d), SW620Mito: (1.06)
SW620; exposure time 72 h, n = 3, 95% CI given
  IC50: 2910 nM
SW620; [3]
  activity factor IC50(1)/IC50(3a–4d), SW620: (0.986)
SW620D; [5]
  IC50: 6.01 µM
SW620D; [3]
  activity factor IC50(1)/IC50(3a–4d), SW620D: (0.690)
MCF7
  increased cytotoxicity vs corresponding amine 1, MCF7: approximately 6 fold
MCF7; read-out: IC50 MCF7, exposure time 72 h, n = 3, 95% CI given
  IC50: 634 nM
MCF7; [3]
  activity factor IC50(1)/IC50(3a–4d), MCF7: (6.17)
Colo205
  increased cytotoxicity vs corresponding amine 1, Colo205: approximately 6 fold
Colo205; read-out: IC50 Colo205, exposure time 72 h, n = 3, 95% CI given
  IC50: 939 nM
Colo205; [3]
  activity factor IC50(1)/IC50(3a–4d), Colo205: (6.46)
HepG2; read-out: IC50 HepG2, exposure time 72 h, n = 3, 95% CI given
  IC50: 1890 nM
HepG2; [3]
  activity factor IC50(1)/IC50(3a–4d), HepG2: (1.27)
SW620E; exposure time 72 h, n = 3, ABCC1- and ABCB1-overexpressing MDR line
  IC50: 5.46 µM
SW620E; [3]
  activity factor IC50(1)/IC50(3a–4d), SW620E: (0.741)
SW620V; [5]
  IC50: 5.01 µM
SW620V; [3]
  activity factor IC50(1)/IC50(3a–4d), SW620V: (0.687)
HCT116; read-out: IC50 HCT116, exposure time 72 h, n = 3, 95% CI given
  IC50: 3.76 µM
HCT116; [3]
  activity factor IC50(1)/IC50(3a–4d), HCT116: (2.14)
SW620 cells [2]
  ROS generation (in words): increase the level of ROS
SW620C; [4]
  IC50: 4.36 µM
SW620C; [3]
  activity factor IC50(1)/IC50(3a–4d), SW620C: (0.764)
A549; read-out: IC50 A549, exposure time 72 h, n = 3, 95% CI given
  IC50: 3.25 µM
A549; [3]
  activity factor IC50(1)/IC50(3a–4d), A549: (2.17)
